Measured values as given in ChEMBL document CHEMBL1159364, “Inhibition of [3H]-LSD binding to 5-HT7 receptors by flavonoids from Scutellaria lateriflora” (J Nat Prod, 2003).

The compounds below were run against 5-hydroxytryptamine receptor 7 (Homo sapiens, UniProt P34969) (assay: Displacement of [3H]LSD from human 5HT7 receptor expressed in CHO cells).
Chain of 5-hydroxytryptamine receptor 7 (P34969 whole entry): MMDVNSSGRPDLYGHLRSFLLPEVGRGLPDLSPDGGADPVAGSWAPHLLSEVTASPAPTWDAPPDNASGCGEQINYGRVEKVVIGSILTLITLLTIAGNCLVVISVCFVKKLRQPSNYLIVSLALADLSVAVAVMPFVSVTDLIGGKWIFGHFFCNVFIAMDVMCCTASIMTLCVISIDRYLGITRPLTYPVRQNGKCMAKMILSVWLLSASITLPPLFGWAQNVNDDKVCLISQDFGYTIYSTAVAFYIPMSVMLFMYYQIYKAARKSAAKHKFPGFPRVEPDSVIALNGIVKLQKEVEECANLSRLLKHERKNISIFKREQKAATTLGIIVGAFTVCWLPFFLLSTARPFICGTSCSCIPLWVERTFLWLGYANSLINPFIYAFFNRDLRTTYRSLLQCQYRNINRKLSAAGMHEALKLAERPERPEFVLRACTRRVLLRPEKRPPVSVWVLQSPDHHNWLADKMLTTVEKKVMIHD
Assay type: cell-based
Compound O=c1cc(-c2ccccc2)oc2cc(O)c(O)c(O)c12 [BAICALEIN] has an IC50 of over 350 µM. In the case of O=C(O)[C@H]1O[C@@H](Oc2cc3oc(-c4ccccc4)cc(=O)c3c(O)c2O)[C@H](O)[C@@H](O)[C@@H]1O [BAICALIN], the IC50 is reported as over 200 µM. In the case of O=C1C[C@@H](c2ccccc2)Oc2cc(O[C@@H]3O[C@H](C(=O)O)[C@@H](O)[C@H](O)[C@H]3O)c(O)c(O)c21 [DIHYDROBAICALIN], the IC50 is reported as 179 µM. Work on O=C(O)[C@H]1O[C@@H](Oc2cc3oc(-c4ccccc4O)cc(=O)c3c(O)c2O)[C@H](O)[C@@H](O)[C@@H]1O [IKONNIKOSIDE I] yielded an IC50 of 135 µM. For O=C(O)[C@H]1O[C@@H](Oc2cc3oc(-c4ccc(O)cc4)cc(=O)c3c(O)c2O)[C@H](O)[C@@H](O)[C@@H]1O [SCUTELLARIN], the IC50 was 63.4 µM. In the case of COc1c(O)cc(O)c2c(=O)cc(-c3ccccc3)oc12 [WOGONIN], the IC50 is reported as over 350 µM.
